From patent US12129248B2, “Chromobox protein inhibitors and uses thereof” (Dana-Farber Cancer Institute, Inc., priority 2016, dated 2024) come the findings set out here.

“And” between values parts separate entries of the source, which are not always exact repeats. Identical values can stand only once.

In data set [1] the test system is HCT292 human lung cancer cells. Put plainly: HCT292 cell viability (crystal violet / ATPlite). The data set is classed as cell-based. Conditions: for % Viability / viability at 20 µM / viability at 50 µM / viability at 10 µM: HCT292 cells, relative to DMSO; for % Viability: 96 hours; for viability at 20 µM / viability at 50 µM / viability at 10 µM / IC50: Homo sapiens; for viability at 20 µM / viability at 50 µM / viability at 10 µM: 96 h; for IC50: Table 4, assay not given, cited among cellular activity Tables 3-9 (HCT292). As for the experimental part: Lastly, the biological activity of lead compounds was assessed in cancer cells lines determined to be sensitive to CBX inhibition. First, a cell line screening for CBX2 and CBX3 dependence/sensitivity was conducted using shRNAs. […] These cell lines were utilized to evaluate the potential cellular activity of a panel of CBX inhibitors (Tables 3-9).
Briefly, HCT292 cells were treated 24 hours after passage; the compounds in DMSO were added directly to their media. Initially, which cells caused cell death was checked by fixing and staining the cells with crystal violet 96-hours post treatment and then reading the absorbance using the Envision and comparing the signal to a DMSO control. This was done as a preliminary viability screen prior to the ATPlite assay to determine which compounds HCT292 cells were and H661 cells were not sensitive to. […] Thus, a cellular system to evaluate the activity of small molecule CBX inhibitors was established.
(Cellular ATP, detected with luciferase, serves as a proxy for viable cell number.)

The target in the next data set is Human His6-CBX7 (Homo sapiens (Human), UniProt O95931). Briefly: CBX7 AlphaScreen assay (binding of CBX7 chromodomain to H3K27me3 peptide). The following applies: for IC50: average, His6-CBX7 / biotinylated-H3K27me3, read-out: AVG CBX7 Alpha IC50. From the text:
A biochemical assay was developed based on nanoparticle AlphaScreen assay to monitor the binding of recombinant CBX chromodomain (CBX7) to a methylated peptide (H3K27me3).
The primary assay uses recombinant CBX chromodomain and synthetic, trimethylated H3 histone tail peptide. When CBX/histone tail-binding occurs, AlphaScreen beads are brought in close proximity, resulting in singlet molecular oxygen transfer and production of a luminescent signal. Assay positives inhibiting the binding interaction are therefore expected to prevent complex formation, diminishing signal intensity. The AlphaScreen technology features an anti-Stokes shift in detection: due to energy transfer between beads by singlet oxygen and internal chemical reactions within the acceptor bead, the emission wavelength is blue-shifted relative to the excitation wavelength, which is impossible in traditional fluorescent assays. The relatively long path length of 200 nm that singlet molecular oxygen can travel enables reporting on full protein complexes and not just single target binding. […] Neither the small molecules being tested nor the target protein, CBX7, need to be chemically, conformationally, or behaviorally altered by tethering them to a surface or reporter that may decrease physiological relevance and beget screening artifacts. The primary assay monitors binding of the chromodomain of CBX7 to a histone tail containing a trimethylated lysine at K27, the biologically relevant interaction through which PRC binds to chromatin to repress transcription. This is a robust proximity-based assay that utilizes AlphaScreen technology (PerkinElmer). The assay consists of His6-CBX7 bound to a Ni^++ acceptor bead and the biotinylated histone tail bound to a streptavadin donor bead. Upon CBX7/H3K27me3 binding, the steptavidin bead comes into proximity with the Ni^++ bead to luminesce upon light excitation ([…]; see below).
The protocol for the CBX7 AlphaScreen was as follows: a standard alpha buffer (50 mM HEPES, 150 mM NaCl, 0.1% w/v BSA, 0.01% w/v Tween20) at pH 8.0 and make up two stock solutions at 2× final concentration in the alpha buffer. Solution A contains Human His6-CBX7 is used with biotinylated-H3K27me3 (residues 20-34), at 100 nM and 50 nM respectively. Solution B contains 20 nM streptavidin donor beads and 20 nM nickel acceptor beads. For 384 well assay formats, 10 uL of solution A is added to each well of the assay plate and the plate is spun at 1000 rpm for 30 seconds. 100 nL of experimental compounds from stock plates are delivered by robotic pin transfer using a Janus Workstation (PerkinElmer), allowing the compounds to interact with CBX7 binding prior to assay measurement, followed by another spin and an incubation room temperature. Finally, 10 uL of solution B is added to each well, the plate is spun again and then incubated at room temperature. AlphaScreen measurements are performed on an Envision 2104 (PerkinElmer) utilizing the manufacturer's protocol that has the correct excitation and emission wavelengths, cutoff filters, delay time, etc. A crosstalk calculation is also done through the Envision software to correct for luminescence for adjacent wells while reading the plate. The signal is then normalized to DMSO control wells on the compound plate prior to creation of the IC50 curves.
For orientation: Bead proximity is the source of the signal in Alpha formats.

Chain of Human His6-CBX7 (O95931 11-69): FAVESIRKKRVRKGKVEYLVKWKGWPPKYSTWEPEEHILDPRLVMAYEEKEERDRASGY

As usually defined, the viability is the share of living cells, or the viability signal relative to a control. A higher viability goes with better survival. In general, IC50 refers to the concentration needed to halve the response being measured. As to `CN1CCN(CCNC(=O)CC2S/C(=N/N=C/c3ccc(O)c(O)c3O)NC2=O)CC1` (centres unmarked) [ACV-63 (CP)], the “% Viability” value in data set [1] (10 uM, listed as 2-195 (CP)) came to 34.9%. In addition, the viability at 20 µM in data set [1] came to 41%. In data set [1] (50 uM), the viability at 50 µM stood at 60.6%. Also, the IC50 on Human His6-CBX7 turned out to be 5.31 µM.
Take `O=C(CC1S/C(=N/N=C/c2ccc(O)c(O)c2O)NC1=O)Nc1ccc(N2CCCC2)cc1` (centres unmarked) [ACV-17 (1), 2-(4-oxo-2-((2,3,4-trihydroxybenzylidene)hydrazono)thiazolidin-5-yl)-N-(4-(pyrrolidin-1-yl)phenyl) acetamide]: the “% Viability” value in data set [1] (50 uM, listed as 1-258C) stood at 33.0%. In data set [1] (10 uM), this compound returned a viability at 10 µM of 72.2%. For the same compound, on Human His6-CBX7, the concentration for half-maximal inhibition (IC50) was determined as 69.7 µM.
For `CN1CCN(CCNC(=O)CC2S/C(=N/N=C/c3ccc(O)c(O)c3O)NC2=O)CC1` (centres unmarked) [ACV-63, N-(2-(4-methylpiperazin-1-yl)ethyl)-2-(4-oxo-2-((2,3,4-trihydroxybenzylidene)hydrazono)thiazolidin-5-yl)acetamide], the “% Viability” value in data set [1] (10 uM, listed as 2-195) was found to be 94.2%; in data set [1] (50 uM, listed as 2-195), 43.5%. Also, the IC50 at Human His6-CBX7 turned out to be 0.183 µM.
On to `O=C(CC1S/C(=N/N=C/c2cccnc2)NC1=O)Nc1ccc(N2CCCC2)cc1` (centres unmarked) [ACV-14 (2)], for which the IC50 was determined as 115 µM in data set [1] and 10.2 µM at Human His6-CBX7.
For the compound `O=C(Nc1ccc(N2CCCC2)cc1)c1ccc(-c2csc(CCN3CCOCC3)n2)cc1` [ACV-89], the viability at 10 µM in data set [1] (10 uM) stood at 31.3%. This compound gave a viability at 20 µM in data set [1] of 29%. The compound further displayed a viability at 50 µM in data set [1] (50 uM) of 28%. In addition, the IC50 at Human His6-CBX7 was determined as 12.9 µM.
For `COC(=O)c1ccc2nc(-c3ccc(O)c(O)c3O)c(NCc3ccccc3)n2c1` [ACV-91] the same measures were 33.5%, 30.5%, 18% and 12 µM.
`O=C(Cc1cnc(NC(=O)Nc2cccnc2)s1)Nc1ccc(N2CCCC2)cc1` [ACV-40, 2-(2-(3-(pyridin-3-yl)ureido)thiazol-5-yl)-N-(4-(pyrrolidin-1-yl)phenyl)acetamide] registered a viability at 10 µM in data set [1] (10 uM) of 99%. The viability at 50 µM in data set [1] (50 uM) came to 82.9%. Besides, the IC50 in data set [1] was found to be 83.9 µM; at Human His6-CBX7 it was 12.8 µM.
On to `O=C(Cc1cnc(NC(=O)Cc2cccnc2)s1)Nc1ccc(N2CCCC2)cc1` [ACV-48 (2)], for which the IC50 at Human His6-CBX7 amounted to 607 µM.
On the same count and under the same terms, as for `COC(=O)Cc1cnc(NC(=O)c2ccc(CCN3CCCC3)cc2)s1` [ACV-93], the figure is 440 µM; as for `CN1CCN(c2ccc(NC(=O)Cc3cnc(NC(=O)Cc4cccnc4)s3)cc2)CC1` [ACV-46], 88.4 µM.
On the same count and under the same terms, as for `COc1ccc(NC(=O)Nc2ncc(CC(=O)Nc3ccc(N4CCCC4)cc3)s2)cc1OC` [ACV-53], the figure is 12.5 µM; as for `COC(=O)Cc1csc(N/N=C/c2ccc(O)c(O)c2O)n1` [ACV-87], 7.26 µM.
Consider `O=C(CCC(=O)N1CCCC(NC(=O)c2cccnc2)C1)c1ccc(CN2CCCC2)cc1` (centres unmarked) [ACV-71], for which the IC50 on Human His6-CBX7 is 4920 µM.
The same measure, in the same setting: as for `O=C(CC1S/C(=N/C(=O)c2ccccc2)NC1=O)Nc1ccc(N2CCCC2)cc1` (centres unmarked) [ACV-30], the figure is 39 µM.
For the compound `O=C(N/N=C/c1ccc(N2CCCC2)cc1)c1cc(-c2ccco2)nc2ccccc12` [ACV-05], at Human His6-CBX7, the IC50 stood at 1.88 µM. Besides, the “improvement in binding affinity compared to the original scaffold” value on Human His6-CBX7 (versus Scaffold 2 (FIG. 7)) is on record as “more than 5 fold”.
Take `O=C(CC1S/C(=N/N=C/c2ccc3cccnc3n2)NC1=O)Nc1ccc(N2CCCC2)cc1` (centres unmarked) [ACV-26]: at Human His6-CBX7, the IC50 stood at 16.6 µM.
The same measure, in the same setting: as for `CN1CCN(CCNC(=O)CC2S/C(=N/N=C/c3ccc(O)c(O)c3O)NC2=O)CC1` (centres unmarked) [ACV-63 (2)], the figure is 22.5 µM.
The same measure, in the same setting: as for `CN1CCN(CCNC(=O)c2ccc(-c3csc(NCCc4cccnc4)n3)cc2)CC1` [ACV-98], the figure is 121 µM.
For the compound `COc1ccc(CC(=O)Nc2nc(CC(=O)Nc3ccc(N4CCCC4)cc3)cs2)c(OC)c1OC` [ACV-83], the IC50 on Human His6-CBX7 stood at 23.9 µM.
On the same count and under the same terms, as for `O=C(Nc1csc(N/N=C/c2ccc(O)c(O)c2O)n1)c1ccc(CCN2CCCC2)cc1` [ACV-61], the figure is 3.94 µM.
Still for that read-out and setting: as for `Cc1ccc(/C=N/N=C2\NC(=O)C(CC(=O)Nc3ccc(N4CCCC4)cc3)S2)cc1F` (centres unmarked) [ACV-27], the figure is 33.9 µM; as for `O=C(NCCN1CCCC1)c1ccc(-c2csc(N/N=C/c3cccnc3)n2)cc1` [ACV-79], 3.01 µM.
In the case of `O=C(Cc1cnc(NC(=O)Cc2cccnc2)s1)Nc1ccc(Br)cc1` [ACV-41], at Human His6-CBX7, the IC50 amounted to 1450 µM.
Still for that read-out and setting: as for `O=C(CCC(=O)c1ccc(CN2CCCC2)cc1)NC1CCCN(C(=O)c2cccnc2)C1` (centres unmarked) [ACV-70], the figure is 46.7 µM; as for `CC(C)(C)c1ccc(/C=N/N=C2\NC(=O)C(CC(=O)Nc3ccc(N4CCCC4)cc3)S2)cc1` (centres unmarked) [ACV-29], 39 µM and 15.5 µM.
Compound `CN(C)c1ccc(CCNC(=O)CC2S/C(=N/N=C/c3cccnc3)NC2=O)cc1` (centres unmarked) [ACV-42] had a viability at 50 µM in data set [1] (50 uM) of 95.8%. In addition, the figures for the IC50 (in data set [1]; on Human His6-CBX7) were 1000 µM and 155 µM, respectively.
Consider `O=C(CC1S/C(=N/N=C/c2ccc(O)c(O)c2O)NC1=O)Nc1ccc(N2CCCC2)cc1` (centres unmarked) [ACV-17(CP)], for which the “% Viability” value in data set [1] (50 uM, listed as 258C (CP)) was found to be 20.3%. At Human His6-CBX7, the half-inhibitory concentration (IC50) came out at 1.74 µM.
In the case of `COC(=O)c1ccc(-c2ccc(/C=N/N=C3\NC(=O)C(CC(=O)Nc4ccc(N5CCCC5)cc4)S3)cc2)cc1` (centres unmarked) [ACV-20], the IC50 on Human His6-CBX7 is 28.6 µM.
Take `CN1CCN(CCNc2nc(CC(=O)Nc3ccc(N4CCCC4)cc3)cs2)CC1` [ACV-85]: at Human His6-CBX7, the IC50 was 54.8 µM.
Still for that read-out and setting: as for `O=C(NCc1cccc(N2CCCC2)n1)c1cc(-c2ccco2)nc2ccccc12` [ACV-09], the figure is 7.39 µM.
On the same count and under the same terms, as for `O=C(O)c1ccc(-c2csc(N/N=C/c3ccc(O)c(O)c3O)n2)cc1` [ACV-64], the figure is 5.22 µM; as for `O=C(c1ccc(-c2csc(NCCc3cccnc3)n2)cc1)N1CCC(N2CCCC2)CC1` [ACV-97], 81.7 µM; as for `O=C(Cc1cnc(NC(=O)C(F)(F)c2ccccc2)s1)Nc1ccc(N2CCCC2)cc1` [ACV-74], 167 µM.
On the same count and under the same terms, as for `C(=N\Nc1nc(-c2ccc(OCc3ccccc3)cc2)cs1)/c1cccnc1` [ACV-59], the figure is 759 µM; as for `O=C(CC1S/C(=N/N=C/c2ccc(O)c(O)c2)NC1=O)Nc1ccc(N2CCCC2)cc1` (centres unmarked) [ACV-36 (1)], 10 µM.
For the compound `O=C(Cc1cccnc1)/N=C1\NC(=O)C(CC(=O)Nc2ccc(N3CCCC3)cc2)S1` (centres unmarked) [ACV-33], the IC50 on Human His6-CBX7 amounted to 56.2 µM.
The same measure, in the same setting: as for `O=C(CC1SCC(C(=O)N/N=C/c2ccc(O)c(O)c2O)NC1=O)Nc1ccc(N2CCCC2)cc1` (centres unmarked) [ACV-34], the figure is 7.9 µM.
The same measure, in the same setting: as for `O=C(CC1SC(N/N=C/c2ccc(O)c(O)c2O)=NC1=O)Nc1ccc(N2CCCCCC2)cc1` (centres unmarked) [ACV-86], the figure is 11.8 µM; as for `O=C(Cc1cnc(NC(=O)Cc2cccnc2)s1)Nc1ccc(N2CCCC2)cc1` [ACV-48 (1)], 403 µM.
The same measure, in the same setting: as for `CN1CCN(CCNC(=O)Cc2cnc(NC(=O)Nc3cccnc3)s2)CC1` [ACV-81], the figure is 104 µM; as for `CN1CCN(c2ccc(NC(=O)c3cc(-c4ccco4)nc4ccccc34)cc2)CC1` [ACV-10], 20.2 µM.
